Results taken from paper PMC11167047 (Cell Death Discovery, 2024).

Experiments:
Assay in all cases: kinome screen (33PanQinase)
Assay type in all cases: biochemical
ASK1 = molecular target: T1, ASK1 (Homo sapiens, UniProt Q99683)
T1 construct: purchased Reaction Biology Europe GmbH (formerly ProQinase)
T1 sequence (Q99683 1-1374): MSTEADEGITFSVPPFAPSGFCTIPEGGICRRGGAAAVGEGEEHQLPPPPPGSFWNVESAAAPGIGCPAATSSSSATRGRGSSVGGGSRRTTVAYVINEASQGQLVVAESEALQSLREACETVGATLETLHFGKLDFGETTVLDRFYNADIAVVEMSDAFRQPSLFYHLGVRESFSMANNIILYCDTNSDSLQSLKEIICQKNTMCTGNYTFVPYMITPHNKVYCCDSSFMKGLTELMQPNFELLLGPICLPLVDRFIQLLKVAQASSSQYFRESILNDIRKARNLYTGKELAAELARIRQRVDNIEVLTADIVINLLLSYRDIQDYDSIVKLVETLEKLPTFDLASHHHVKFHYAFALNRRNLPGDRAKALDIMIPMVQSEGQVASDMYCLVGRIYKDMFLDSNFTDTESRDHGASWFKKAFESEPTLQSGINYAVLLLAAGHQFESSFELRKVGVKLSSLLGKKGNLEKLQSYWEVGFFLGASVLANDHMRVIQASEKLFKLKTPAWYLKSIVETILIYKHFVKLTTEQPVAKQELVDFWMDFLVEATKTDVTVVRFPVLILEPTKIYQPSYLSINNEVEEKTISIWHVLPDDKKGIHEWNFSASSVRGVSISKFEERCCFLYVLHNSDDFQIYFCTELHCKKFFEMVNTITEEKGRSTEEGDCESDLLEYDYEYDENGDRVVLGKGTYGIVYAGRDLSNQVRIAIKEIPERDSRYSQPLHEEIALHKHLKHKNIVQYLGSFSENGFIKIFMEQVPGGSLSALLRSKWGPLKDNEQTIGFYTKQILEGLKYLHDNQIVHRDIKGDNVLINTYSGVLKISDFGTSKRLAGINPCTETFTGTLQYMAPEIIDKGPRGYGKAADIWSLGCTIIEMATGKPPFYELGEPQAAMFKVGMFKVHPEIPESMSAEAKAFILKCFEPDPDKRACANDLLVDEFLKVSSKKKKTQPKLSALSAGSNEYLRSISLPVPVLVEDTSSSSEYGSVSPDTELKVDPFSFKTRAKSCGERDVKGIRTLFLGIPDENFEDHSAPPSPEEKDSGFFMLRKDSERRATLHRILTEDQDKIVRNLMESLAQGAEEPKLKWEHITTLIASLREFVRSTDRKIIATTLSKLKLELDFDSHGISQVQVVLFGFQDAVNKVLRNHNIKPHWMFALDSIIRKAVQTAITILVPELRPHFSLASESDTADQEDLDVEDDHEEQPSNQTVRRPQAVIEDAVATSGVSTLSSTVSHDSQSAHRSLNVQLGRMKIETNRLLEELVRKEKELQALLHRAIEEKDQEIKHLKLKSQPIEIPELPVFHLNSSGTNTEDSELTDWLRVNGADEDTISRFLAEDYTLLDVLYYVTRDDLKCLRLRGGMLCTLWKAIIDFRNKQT
Description: (§1) The Kinome Screening was performed by Reaction Biology Europe GmbH (http://reactionbiology.com; Freiburg i. Br., Germany).

CAMK1D = molecular target: T2, CAMK1D (Homo sapiens, UniProt Q8IU85)
T2 construct: purchased Reaction Biology Europe GmbH (formerly ProQinase)
Description: as §1

CAMK2G = molecular target: T3, CAMK2G (Homo sapiens, UniProt Q13555)
T3 construct: purchased Reaction Biology Europe GmbH (formerly ProQinase)
T3 sequence (Q13555 whole entry): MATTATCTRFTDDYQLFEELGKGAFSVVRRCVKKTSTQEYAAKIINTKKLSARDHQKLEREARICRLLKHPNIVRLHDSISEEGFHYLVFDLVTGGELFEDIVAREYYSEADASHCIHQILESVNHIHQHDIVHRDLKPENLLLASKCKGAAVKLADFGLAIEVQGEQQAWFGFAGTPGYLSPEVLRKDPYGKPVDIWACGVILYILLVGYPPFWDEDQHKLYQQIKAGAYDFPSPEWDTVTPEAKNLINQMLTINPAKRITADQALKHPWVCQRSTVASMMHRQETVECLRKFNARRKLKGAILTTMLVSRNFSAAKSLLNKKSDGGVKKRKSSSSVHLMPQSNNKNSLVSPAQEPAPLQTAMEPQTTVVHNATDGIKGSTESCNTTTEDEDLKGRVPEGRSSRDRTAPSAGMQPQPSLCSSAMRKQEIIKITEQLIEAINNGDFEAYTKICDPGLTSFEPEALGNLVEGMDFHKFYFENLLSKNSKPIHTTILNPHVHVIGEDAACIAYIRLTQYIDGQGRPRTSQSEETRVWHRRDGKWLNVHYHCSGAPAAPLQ
Description: as §1

CAMKK1 = molecular target: T4, CAMKK1 (Homo sapiens, UniProt Q8N5S9)
T4 construct: purchased Reaction Biology Europe GmbH (formerly ProQinase)
T4 sequence (Q8N5S9 whole entry): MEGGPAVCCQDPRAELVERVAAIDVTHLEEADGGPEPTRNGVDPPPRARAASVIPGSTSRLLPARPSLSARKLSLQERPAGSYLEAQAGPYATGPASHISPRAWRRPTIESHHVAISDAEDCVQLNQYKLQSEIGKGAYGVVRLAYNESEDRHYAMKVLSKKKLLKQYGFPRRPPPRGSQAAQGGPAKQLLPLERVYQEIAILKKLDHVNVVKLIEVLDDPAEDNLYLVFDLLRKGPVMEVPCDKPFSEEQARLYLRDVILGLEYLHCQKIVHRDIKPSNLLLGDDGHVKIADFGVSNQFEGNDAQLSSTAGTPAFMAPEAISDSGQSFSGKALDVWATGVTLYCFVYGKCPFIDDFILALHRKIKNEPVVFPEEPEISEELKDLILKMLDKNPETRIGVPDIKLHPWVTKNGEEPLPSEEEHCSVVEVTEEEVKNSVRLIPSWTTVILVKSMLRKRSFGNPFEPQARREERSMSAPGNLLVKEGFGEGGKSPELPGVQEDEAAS
Description: as §1

CDK12/CycK = molecular target: T5, CDK12/CycK (Homo sapiens, UniProt Q9NYV4)
T5 construct: purchased Reaction Biology Europe GmbH (formerly ProQinase)
T5 sequence (Q9NYV4 whole entry): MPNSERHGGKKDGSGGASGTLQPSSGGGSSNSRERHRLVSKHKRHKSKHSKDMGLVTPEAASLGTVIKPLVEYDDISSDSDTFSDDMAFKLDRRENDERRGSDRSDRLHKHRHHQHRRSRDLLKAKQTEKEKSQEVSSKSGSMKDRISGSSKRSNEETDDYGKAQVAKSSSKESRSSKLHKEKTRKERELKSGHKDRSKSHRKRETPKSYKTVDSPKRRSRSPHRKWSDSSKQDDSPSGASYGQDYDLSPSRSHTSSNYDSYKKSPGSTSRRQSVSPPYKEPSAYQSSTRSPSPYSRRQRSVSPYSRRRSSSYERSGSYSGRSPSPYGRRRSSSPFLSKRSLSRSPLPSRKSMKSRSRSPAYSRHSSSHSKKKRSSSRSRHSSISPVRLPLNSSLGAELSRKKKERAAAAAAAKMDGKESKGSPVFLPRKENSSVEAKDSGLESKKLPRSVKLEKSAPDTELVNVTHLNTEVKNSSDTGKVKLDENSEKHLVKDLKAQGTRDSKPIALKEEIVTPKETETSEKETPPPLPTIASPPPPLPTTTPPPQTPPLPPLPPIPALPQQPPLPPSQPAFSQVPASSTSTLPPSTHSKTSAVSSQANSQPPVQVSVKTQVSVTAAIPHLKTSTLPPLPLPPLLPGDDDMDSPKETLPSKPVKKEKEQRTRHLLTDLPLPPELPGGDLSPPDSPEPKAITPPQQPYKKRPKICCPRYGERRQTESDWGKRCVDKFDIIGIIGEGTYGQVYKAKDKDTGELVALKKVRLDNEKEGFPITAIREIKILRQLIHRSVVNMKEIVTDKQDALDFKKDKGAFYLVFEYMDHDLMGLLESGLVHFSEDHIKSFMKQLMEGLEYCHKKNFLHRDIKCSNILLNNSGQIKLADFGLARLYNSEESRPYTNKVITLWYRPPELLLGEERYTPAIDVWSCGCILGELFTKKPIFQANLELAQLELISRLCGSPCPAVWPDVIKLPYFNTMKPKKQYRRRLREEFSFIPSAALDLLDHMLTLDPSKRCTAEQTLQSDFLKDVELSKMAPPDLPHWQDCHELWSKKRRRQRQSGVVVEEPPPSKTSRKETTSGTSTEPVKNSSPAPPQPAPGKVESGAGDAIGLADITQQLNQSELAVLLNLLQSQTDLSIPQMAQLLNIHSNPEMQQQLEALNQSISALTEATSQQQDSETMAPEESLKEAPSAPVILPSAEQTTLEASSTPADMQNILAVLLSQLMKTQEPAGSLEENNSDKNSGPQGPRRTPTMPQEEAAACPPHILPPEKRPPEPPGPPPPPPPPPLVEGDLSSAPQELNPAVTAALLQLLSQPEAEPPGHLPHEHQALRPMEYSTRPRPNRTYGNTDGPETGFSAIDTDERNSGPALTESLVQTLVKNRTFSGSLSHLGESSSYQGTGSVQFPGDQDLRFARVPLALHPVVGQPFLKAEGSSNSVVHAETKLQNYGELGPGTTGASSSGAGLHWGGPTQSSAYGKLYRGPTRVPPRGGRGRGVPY
T5 sequence (O75909 whole entry partner): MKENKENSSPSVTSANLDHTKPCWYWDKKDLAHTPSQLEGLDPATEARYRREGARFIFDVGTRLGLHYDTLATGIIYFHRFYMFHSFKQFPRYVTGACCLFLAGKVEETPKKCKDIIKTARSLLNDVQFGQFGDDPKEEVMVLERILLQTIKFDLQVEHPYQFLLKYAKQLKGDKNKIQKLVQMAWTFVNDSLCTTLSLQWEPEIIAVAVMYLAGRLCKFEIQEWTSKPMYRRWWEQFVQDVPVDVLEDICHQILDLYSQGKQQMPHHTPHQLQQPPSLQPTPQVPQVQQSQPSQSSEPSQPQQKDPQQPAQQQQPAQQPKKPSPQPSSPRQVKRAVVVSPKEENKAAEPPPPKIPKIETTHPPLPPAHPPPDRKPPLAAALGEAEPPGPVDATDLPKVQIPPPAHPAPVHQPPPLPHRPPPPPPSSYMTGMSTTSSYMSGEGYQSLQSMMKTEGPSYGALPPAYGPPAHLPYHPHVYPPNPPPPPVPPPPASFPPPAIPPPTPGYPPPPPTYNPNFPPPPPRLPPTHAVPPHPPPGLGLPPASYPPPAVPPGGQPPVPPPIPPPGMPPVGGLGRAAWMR
Description: as §1

CK2α2 = molecular target: T6, CK2α2 (Homo sapiens, UniProt P19784)
T6 construct: purchased Reaction Biology Europe GmbH (formerly ProQinase)
Description: as §1

SIK3 = molecular target: T7, SIK3 (Homo sapiens, UniProt Q9Y2K2)
T7 construct: purchased Reaction Biology Europe GmbH (formerly ProQinase)
T7 sequence (Q9Y2K2 whole entry): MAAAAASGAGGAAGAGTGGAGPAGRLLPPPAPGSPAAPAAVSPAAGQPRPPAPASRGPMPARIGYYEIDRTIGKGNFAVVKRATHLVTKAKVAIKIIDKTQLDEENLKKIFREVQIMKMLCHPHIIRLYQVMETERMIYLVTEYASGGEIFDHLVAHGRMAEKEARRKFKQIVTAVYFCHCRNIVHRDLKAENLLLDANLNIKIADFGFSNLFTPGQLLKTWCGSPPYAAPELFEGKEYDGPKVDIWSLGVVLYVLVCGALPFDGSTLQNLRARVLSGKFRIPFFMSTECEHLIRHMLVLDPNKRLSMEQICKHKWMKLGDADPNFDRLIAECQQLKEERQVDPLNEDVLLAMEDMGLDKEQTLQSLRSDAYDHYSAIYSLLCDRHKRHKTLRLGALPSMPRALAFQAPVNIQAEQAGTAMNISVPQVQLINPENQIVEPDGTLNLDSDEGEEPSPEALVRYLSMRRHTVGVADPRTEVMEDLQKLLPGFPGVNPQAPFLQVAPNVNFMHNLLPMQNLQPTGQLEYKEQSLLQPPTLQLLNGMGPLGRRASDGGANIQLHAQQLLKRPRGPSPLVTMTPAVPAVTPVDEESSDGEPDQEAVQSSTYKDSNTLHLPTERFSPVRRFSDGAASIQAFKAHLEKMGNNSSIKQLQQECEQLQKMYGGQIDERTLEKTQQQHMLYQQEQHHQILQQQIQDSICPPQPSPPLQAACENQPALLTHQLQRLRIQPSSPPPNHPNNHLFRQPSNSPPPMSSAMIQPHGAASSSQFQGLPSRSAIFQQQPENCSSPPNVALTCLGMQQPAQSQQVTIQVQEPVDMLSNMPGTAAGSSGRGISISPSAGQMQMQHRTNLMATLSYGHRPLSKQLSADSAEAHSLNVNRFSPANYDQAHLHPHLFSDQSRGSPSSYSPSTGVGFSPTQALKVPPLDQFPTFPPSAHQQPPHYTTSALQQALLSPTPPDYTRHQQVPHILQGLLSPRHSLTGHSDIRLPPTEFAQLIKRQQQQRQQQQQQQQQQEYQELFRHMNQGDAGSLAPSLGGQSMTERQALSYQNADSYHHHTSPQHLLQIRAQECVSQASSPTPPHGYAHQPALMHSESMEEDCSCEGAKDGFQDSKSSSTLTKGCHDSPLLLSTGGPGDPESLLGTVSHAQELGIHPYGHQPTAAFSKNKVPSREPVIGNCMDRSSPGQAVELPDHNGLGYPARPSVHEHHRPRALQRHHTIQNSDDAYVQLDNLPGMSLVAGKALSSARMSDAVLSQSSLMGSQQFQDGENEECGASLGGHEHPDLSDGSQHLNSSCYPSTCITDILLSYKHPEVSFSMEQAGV
Description: as §1

YES = molecular target: T8, YES (Homo sapiens, UniProt P07947)
T8 construct: purchased Reaction Biology Europe GmbH (formerly ProQinase)
Description: as §1

p38α = molecular target: T9, p38α (Homo sapiens, UniProt Q16539)
T9 construct: purchased Reaction Biology Europe GmbH (formerly ProQinase)
T9 sequence (Q16539 whole entry): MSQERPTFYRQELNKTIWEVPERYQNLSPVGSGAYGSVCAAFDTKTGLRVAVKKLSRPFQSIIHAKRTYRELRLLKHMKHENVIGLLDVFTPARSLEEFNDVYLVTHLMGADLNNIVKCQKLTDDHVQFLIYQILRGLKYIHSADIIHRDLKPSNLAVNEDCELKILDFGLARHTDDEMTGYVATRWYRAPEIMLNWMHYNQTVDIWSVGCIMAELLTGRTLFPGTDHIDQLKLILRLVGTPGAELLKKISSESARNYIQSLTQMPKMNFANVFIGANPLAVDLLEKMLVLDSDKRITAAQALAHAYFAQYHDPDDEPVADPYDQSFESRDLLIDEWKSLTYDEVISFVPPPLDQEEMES
Description: as §1

COc1ccnc2[nH]cc(-c3cc(N)nc(N)c3)c12 [meriolin 16]
residual kinase activity (ASK1; 0.03 µM): 97 % of control | residual kinase activity (ASK1; 0.3 µM): 85 % of control | residual kinase activity (CAMK1D; 0.03 µM): 102 % of control | residual kinase activity (CAMK1D; 0.3 µM): 81 % of control | residual kinase activity (CAMK2G; 0.03 µM): 94 % of control | residual kinase activity (CAMK2G; 0.3 µM): 82 % of control | residual kinase activity (CAMKK1; 0.03 µM): 97 % of control | residual kinase activity (CAMKK1; 0.3 µM): 95 % of control | residual kinase activity (CDK12/CycK; 0.03 µM): 21 % of control | residual kinase activity (CDK12/CycK; 0.3 µM): 1 % of control | residual kinase activity (CK2α2; 0.03 µM): 110 % of control | residual kinase activity (CK2α2; 0.3 µM): 105 % of control | residual kinase activity (SIK3; 0.03 µM): 106 % of control | residual kinase activity (SIK3; 0.3 µM): 88 % of control | residual kinase activity (YES; 0.03 µM): 100 % of control | residual kinase activity (YES; 0.3 µM): 90 % of control | residual kinase activity (p38α; 0.03 µM): 94 % of control | residual kinase activity (p38α; 0.3 µM): 74 % of control

c1ccc(CNc2cc(-c3c[nH]c4ncccc34)ccn2)cc1 [meriolin 36]
residual kinase activity (ASK1; 0.3 µM): 50 % of control | residual kinase activity (ASK1; 3 µM): 15 % of control | residual kinase activity (CAMK1D; 0.3 µM): 70 % of control | residual kinase activity (CAMK1D; 3 µM): 38 % of control | residual kinase activity (CAMK2G; 0.3 µM): 34 % of control | residual kinase activity (CAMK2G; 3 µM): 6 % of control | residual kinase activity (CAMKK1; 0.3 µM): 51 % of control | residual kinase activity (CAMKK1; 3 µM): 18 % of control | residual kinase activity (CDK12/CycK; 0.3 µM): 1 % of control | residual kinase activity (CDK12/CycK; 3 µM): 2 % of control | residual kinase activity (CK2α2; 0.3 µM): 91 % of control | residual kinase activity (CK2α2; 3 µM): 43 % of control | residual kinase activity (SIK3; 0.3 µM): 72 % of control | residual kinase activity (SIK3; 3 µM): 32 % of control | residual kinase activity (YES; 0.3 µM): 65 % of control | residual kinase activity (YES; 3 µM): 19 % of control | residual kinase activity (p38α; 0.3 µM): 78 % of control | residual kinase activity (p38α; 3 µM): 80 % of control
